Laboratory results published in paper PMC8288134, “Synthesis, potential antitumor activity, cell cycle analysis, and multitarget mechanisms of novel hydrazones incorporating a 4-methylsulfonylbenzene scaffold: a molecular docking study” (Journal of Enzyme Inhibition and Medicinal Chemistry, 2021).
Like-named read-outs stand apart in the source and are kept apart here.

Assays:
T-47D [1] = tested on: T-47D; set-up: method as in https://dtp.cancer.gov/dtpstandard/dwindex/index.jsp; conditions: reference drugs, ref https://dtp.cancer.gov/dtpstandard/dwindex/index.jsp; cited from earlier work
[2] = tested on: breast cancer tumour cell lines; conditions: cited from earlier work; for GI50: read-out: GI50 (subpanel average), reference drugs, ref https://dtp.cancer.gov/dtpstandard/dwindex/index.jsp; for TGI (subpanel average): reference drugs, ref https://dtp.cancer.gov/dtpstandard/dwindex/index.jsp
MDA-MB-435 = tested on: MDA-MB-435; set-up: method as in https://dtp.cancer.gov/dtpstandard/dwindex/index.jsp; conditions: reference drugs, ref https://dtp.cancer.gov/dtpstandard/dwindex/index.jsp; cited from earlier work
CAKI-1 [3] = tested on: CAKI-1; set-up: method as in https://dtp.cancer.gov/dtpstandard/dwindex/index.jsp; conditions: reference drugs, ref https://dtp.cancer.gov/dtpstandard/dwindex/index.jsp; cited from earlier work
[4] = tested on: CNS cancer tumour cell lines; conditions: cited from earlier work; for GI50: read-out: GI50 (subpanel average), reference drugs, ref https://dtp.cancer.gov/dtpstandard/dwindex/index.jsp; for CC50: read-out: LC50 (subpanel average), reference drugs, ref https://dtp.cancer.gov/dtpstandard/dwindex/index.jsp; for TGI (subpanel average): reference drugs, ref https://dtp.cancer.gov/dtpstandard/dwindex/index.jsp
TK-10 = tested on: TK-10; set-up: method as in https://dtp.cancer.gov/dtpstandard/dwindex/index.jsp; conditions: reference drugs, ref https://dtp.cancer.gov/dtpstandard/dwindex/index.jsp; cited from earlier work
MALME-3M = tested on: MALME-3M; set-up: method as in https://dtp.cancer.gov/dtpstandard/dwindex/index.jsp; conditions: reference drugs, ref https://dtp.cancer.gov/dtpstandard/dwindex/index.jsp; cited from earlier work
[5] = tested on: full panel of 59 cancer cell lines; conditions: cited from earlier work; for GI50: read-out: GI50 MG-MID (full panel mean-graph midpoint), reference drugs, ref https://dtp.cancer.gov/dtpstandard/dwindex/index.jsp; for CC50: read-out: LC50 MG-MID (full panel mean-graph midpoint), reference drugs, ref https://dtp.cancer.gov/dtpstandard/dwindex/index.jsp; for TGI MG-MID (full panel mean-graph midpoint): reference drugs, ref https://dtp.cancer.gov/dtpstandard/dwindex/index.jsp
M14 [6] = tested on: M14; set-up: method as in https://dtp.cancer.gov/dtpstandard/dwindex/index.jsp; conditions: reference drugs, ref https://dtp.cancer.gov/dtpstandard/dwindex/index.jsp; cited from earlier work
SNB-75 = tested on: SNB-75; set-up: method as in https://dtp.cancer.gov/dtpstandard/dwindex/index.jsp; conditions: reference drugs, ref https://dtp.cancer.gov/dtpstandard/dwindex/index.jsp; cited from earlier work
SR [7] = tested on: SR; set-up: method as in https://dtp.cancer.gov/dtpstandard/dwindex/index.jsp; conditions: reference drugs, ref https://dtp.cancer.gov/dtpstandard/dwindex/index.jsp; cited from earlier work
[8] = tested on: renal cancer tumour cell lines; conditions: cited from earlier work; for GI50: read-out: GI50 (subpanel average), reference drugs, ref https://dtp.cancer.gov/dtpstandard/dwindex/index.jsp; for CC50: read-out: LC50 (subpanel average), reference drugs, ref https://dtp.cancer.gov/dtpstandard/dwindex/index.jsp; for TGI (subpanel average): reference drugs, ref https://dtp.cancer.gov/dtpstandard/dwindex/index.jsp
HL-60(TB) = tested on: HL-60(TB); set-up: method as in https://dtp.cancer.gov/dtpstandard/dwindex/index.jsp; conditions: reference drugs, ref https://dtp.cancer.gov/dtpstandard/dwindex/index.jsp; cited from earlier work
KM12 = tested on: KM12; set-up: method as in https://dtp.cancer.gov/dtpstandard/dwindex/index.jsp; conditions: reference drugs, ref https://dtp.cancer.gov/dtpstandard/dwindex/index.jsp; cited from earlier work
BT-549 [9] = tested on: BT-549; set-up: method as in https://dtp.cancer.gov/dtpstandard/dwindex/index.jsp; conditions: reference drugs, ref https://dtp.cancer.gov/dtpstandard/dwindex/index.jsp; cited from earlier work
NCI-H23 [10] = tested on: NCI-H23; set-up: method as in https://dtp.cancer.gov/dtpstandard/dwindex/index.jsp; conditions: reference drugs, ref https://dtp.cancer.gov/dtpstandard/dwindex/index.jsp; cited from earlier work
NCI-H322M = tested on: NCI-H322M; set-up: method as in https://dtp.cancer.gov/dtpstandard/dwindex/index.jsp; conditions: reference drugs, ref https://dtp.cancer.gov/dtpstandard/dwindex/index.jsp; cited from earlier work
HT29 = tested on: HT29; set-up: method as in https://dtp.cancer.gov/dtpstandard/dwindex/index.jsp; conditions: reference drugs, ref https://dtp.cancer.gov/dtpstandard/dwindex/index.jsp; cited from earlier work
K-562 = tested on: K-562; set-up: method as in https://dtp.cancer.gov/dtpstandard/dwindex/index.jsp; conditions: reference drugs, ref https://dtp.cancer.gov/dtpstandard/dwindex/index.jsp; cited from earlier work
MOLT-4 = assay: NCI antitumor screen (SRB); type: cell-based; conditions: Homo sapiens, one dose 10 µM, read-out: Growth inhibition percentage (GI%)
NCI-H23 [11] = assay: NCI antitumor screen (SRB); type: cell-based; conditions: Homo sapiens, one dose 10 µM, read-out: Growth inhibition percentage (GI%)
BT-549 [12] = assay: NCI antitumor screen (SRB); type: cell-based; conditions: Homo sapiens, one dose 10 µM, read-out: Growth inhibition percentage (GI%)
CAKI-1 [13] = assay: NCI antitumor screen (SRB); type: cell-based; conditions: Homo sapiens, one dose 10 µM, read-out: Growth inhibition percentage (GI%)
T-47D [14] = assay: NCI antitumor screen (SRB); type: cell-based; conditions: Homo sapiens, T47D, one dose 10 µM, read-out: Growth inhibition percentage (GI%)
OVCAR-3 = assay: NCI antitumor screen (SRB); type: cell-based; conditions: Homo sapiens, one dose 10 µM, read-out: Growth inhibition percentage (GI%)
SK-OV-3 = assay: NCI antitumor screen (SRB); type: cell-based; conditions: Homo sapiens, one dose 10 µM, read-out: Growth inhibition percentage (GI%)
MCF7 = assay: NCI antitumor screen (SRB); type: cell-based; conditions: Homo sapiens, one dose 10 µM, read-out: Growth inhibition percentage (GI%)
HCC-2998 = assay: NCI antitumor screen (SRB); type: cell-based; conditions: Homo sapiens, one dose 10 µM, read-out: Growth inhibition percentage (GI%)
UACC-62 = assay: NCI antitumor screen (SRB); type: cell-based; conditions: Homo sapiens, one dose 10 µM, read-out: Growth inhibition percentage (GI%)
NCI/ADR-RES = assay: NCI antitumor screen (SRB); type: cell-based; conditions: Homo sapiens, one dose 10 µM, read-out: Growth inhibition percentage (GI%)
LOX IMVI = assay: NCI antitumor screen (SRB); type: cell-based; conditions: Homo sapiens, one dose 10 µM, read-out: Growth inhibition percentage (GI%)
SR [15] = assay: NCI antitumor screen (SRB); type: cell-based; conditions: Homo sapiens, one dose 10 µM, read-out: Growth inhibition percentage (GI%)
HCT-15 = assay: NCI antitumor screen (SRB); type: cell-based; conditions: Homo sapiens, one dose 10 µM, read-out: Growth inhibition percentage (GI%)
SK-MEL-5 = assay: NCI antitumor screen (SRB); type: cell-based, human; conditions: Homo sapiens; SK-MEL-5; one dose 10 µM; read-out: Growth inhibition percentage (GI%)
EKVX = assay: NCI antitumor screen (SRB); type: cell-based; conditions: Homo sapiens, one dose 10 µM, read-out: Growth inhibition percentage (GI%)
HOP-62 = assay: NCI antitumor screen (SRB); type: cell-based; conditions: Homo sapiens
COLO 205 = assay: NCI antitumor screen (SRB); type: cell-based; conditions: Homo sapiens, one dose 10 µM, read-out: Growth inhibition percentage (GI%)
M14 [16] = assay: NCI antitumor screen (SRB); type: cell-based; conditions: Homo sapiens, one dose 10 µM, read-out: Growth inhibition percentage (GI%)

Structure (SMILES) | GI50 [2] | TGI (subpanel average) [2] | GI50 [4] | CC50 [4] | TGI (subpanel average) [4] | GI50 [5] | CC50 [5] | TGI MG-MID (full panel mean-graph midpoint) [5] | GI50 [8] | CC50 [8] | TGI (subpanel average) [8] | inhibition at 10 µM (MOLT-4) | inhibition at 10 µM (NCI-H23 [11]) | inhibition at 10 µM (BT-549 [12]) | inhibition at 10 µM (CAKI-1 [13]) | inhibition at 10 µM (T-47D [14]) | inhibition at 10 µM (OVCAR-3) | inhibition at 10 µM (SK-OV-3) | inhibition at 10 µM (MCF7) | inhibition at 10 µM (HCC-2998) | also measured
Cc1ccc(-c2cc(C(F)(F)F)nn2-c2ccc(S(N)(=O)=O)cc2)cc1 [Celecoxib, celecoxib] | 17.5 µM | 34.89 µM | 17.2 µM | 58.8 µM | 31.62 µM | 17.5 µM | 63.3 µM | 34.0 µM | 19.9 µM | 61.2 µM | 41.19 µM | – | – | – | – | – | – | – | – | – | GI50 (T-47D [1]): 15.8 µM; GI50 (MDA-MB-435): 15.8 µM; GI50 (CAKI-1 [3]): 19.9 µM; GI50 (TK-10): 19.9 µM; GI50 (MALME-3M): 19.9 µM; GI50 (M14 [6]): 63.1 µM; GI50 (SNB-75): 15.8 µM; GI50 (SR [7]): 15.8 µM; GI50 (HL-60(TB)): 15.8 µM; GI50 (KM12): 15.8 µM; GI50 (BT-549 [9]): 19.9 µM; GI50 (NCI-H23 [10]): 15.8 µM; GI50 (NCI-H322M): 19.9 µM; GI50 (HT29): 15.8 µM; GI50 (K-562): 10 µM
O=c1[nH]cc(F)c(=O)[nH]1 [Compound 5-Fu, 5-fluorouracil, reference compound] | 6.87 µM | 68.01 µM | 14.4 µM | > 100 µM | 73.70 µM | 0.9 µM | 95.6 µM | 43.4 µM | 0.93 µM | > 100 µM | 46.25 µM | 56.9% | 61% | 62.2% | 60.6% | 43.3% | 52.6% | 22.5% | 88.5% | > 100% | CC50 ([2]; read-out: LC50 (subpanel average), reference drugs, ref https://dtp.cancer.gov/dtpstandard/dwindex/index.jsp): > 100 µM; inhibition at 10 µM (UACC-62): 60.3%; inhibition at 10 µM (NCI/ADR-RES): 52.4%; inhibition at 10 µM (LOX IMVI): 69.6%; inhibition at 10 µM (SR [15]): 75.2%; inhibition at 10 µM (HCT-15): 73.5%; inhibition at 10 µM (SK-MEL-5): 66.3%; inhibition at 10 µM (EKVX): 41.6%; inhibition at 10 µM (HOP-62; HOP-62, one dose 10 µM, read-out: Growth inhibition percentage (GI%)): 52.2%; inhibition at 10 µM (COLO 205): 59.8%
CS(=O)(=O)c1ccc(C(=O)NN=Cc2cccc3ccccc23)cc1 [Compound 6, 4-(Methylsulfonyl)-N'-(naphthalen-1-ylmethylene)benzohydrazide] | – | – | – | – | – | – | – | – | – | – | – | 53.2% | 10.4% | 12.4% | 32.8% | 14.7% | 32.2% | 21.9% | 55.1% | 15.5% | inhibition at 10 µM (UACC-62): 38.4%; inhibition at 10 µM (NCI/ADR-RES): 26.5%; inhibition at 10 µM (LOX IMVI): 27.6%; inhibition at 10 µM (SR [15]): 67.5%; inhibition at 10 µM (HCT-15): 50.2%; inhibition at 10 µM (SK-MEL-5): 32.8%; inhibition at 10 µM (EKVX): 12.6%; inhibition at 10 µM (M14 [16]): 33.2%; inhibition at 10 µM (HOP-62; HOP-62, read-out: Growth inhibition percentage (GI%)): 25.1%; inhibition at 10 µM (COLO 205): 14.3%
